Calls of active or inactive are those of the source.
Tests used:
Format in all cases: functional
Caspase-3 = molecular target: T1, Caspase-3 (Homo sapiens, UniProt P42574);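 note: Dose-response selectivity test against caspase-3 for candidate inhibitors of sentrin-specific proteases (SENPs)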
T1 sequence (P42574 whole entry): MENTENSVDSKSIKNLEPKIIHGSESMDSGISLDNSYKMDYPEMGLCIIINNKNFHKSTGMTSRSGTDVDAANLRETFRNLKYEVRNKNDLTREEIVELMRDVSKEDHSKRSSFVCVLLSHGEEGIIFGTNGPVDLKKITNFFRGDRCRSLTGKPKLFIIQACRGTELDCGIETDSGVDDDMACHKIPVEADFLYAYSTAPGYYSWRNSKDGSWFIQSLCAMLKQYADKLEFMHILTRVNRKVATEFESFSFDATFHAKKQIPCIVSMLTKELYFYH

[1] = molecular target: T2, Sentrin-specific protease 7 (Homo sapiens, UniProt Q9BQF6);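 note: Luminescence-based dose-response confirmation of ultra-high-throughput screening hits, measuring inhibition of SENP7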
T2 sequence (Q9BQF6 whole entry): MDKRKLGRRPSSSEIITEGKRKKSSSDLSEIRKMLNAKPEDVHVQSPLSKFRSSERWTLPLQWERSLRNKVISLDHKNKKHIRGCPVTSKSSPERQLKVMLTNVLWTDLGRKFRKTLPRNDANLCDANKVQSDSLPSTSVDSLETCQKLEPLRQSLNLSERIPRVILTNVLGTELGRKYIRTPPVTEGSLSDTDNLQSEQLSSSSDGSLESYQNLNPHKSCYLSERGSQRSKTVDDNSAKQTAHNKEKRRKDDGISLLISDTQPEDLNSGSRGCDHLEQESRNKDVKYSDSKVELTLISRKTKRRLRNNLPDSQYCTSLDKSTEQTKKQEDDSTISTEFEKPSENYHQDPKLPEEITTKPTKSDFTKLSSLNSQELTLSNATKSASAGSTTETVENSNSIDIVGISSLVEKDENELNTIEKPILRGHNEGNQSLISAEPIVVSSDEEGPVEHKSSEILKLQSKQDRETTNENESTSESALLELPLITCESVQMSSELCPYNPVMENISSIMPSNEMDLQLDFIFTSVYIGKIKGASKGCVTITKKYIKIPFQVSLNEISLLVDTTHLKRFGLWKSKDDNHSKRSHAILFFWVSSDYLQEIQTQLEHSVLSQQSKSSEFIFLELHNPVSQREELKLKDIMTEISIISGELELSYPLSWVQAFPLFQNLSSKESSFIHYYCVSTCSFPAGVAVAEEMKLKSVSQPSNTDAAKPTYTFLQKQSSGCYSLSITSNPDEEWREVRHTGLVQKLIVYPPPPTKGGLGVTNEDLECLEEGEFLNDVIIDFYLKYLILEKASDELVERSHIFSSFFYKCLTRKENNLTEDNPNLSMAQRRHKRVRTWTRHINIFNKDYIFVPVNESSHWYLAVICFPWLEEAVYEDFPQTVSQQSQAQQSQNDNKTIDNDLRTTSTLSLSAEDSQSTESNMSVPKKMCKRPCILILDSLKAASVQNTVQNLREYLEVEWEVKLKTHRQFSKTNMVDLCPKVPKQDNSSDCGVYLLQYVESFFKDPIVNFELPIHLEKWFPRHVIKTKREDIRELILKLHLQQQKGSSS

[2] = molecular target: T3, Sentrin-specific protease 6 (Homo sapiens, UniProt Q9GZR1);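 note: Luminescence-based dose-response confirmatory assay of SENP6 inhibition, following up an ultra-high-throughput screen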
T3 sequence (Q9GZR1 whole entry): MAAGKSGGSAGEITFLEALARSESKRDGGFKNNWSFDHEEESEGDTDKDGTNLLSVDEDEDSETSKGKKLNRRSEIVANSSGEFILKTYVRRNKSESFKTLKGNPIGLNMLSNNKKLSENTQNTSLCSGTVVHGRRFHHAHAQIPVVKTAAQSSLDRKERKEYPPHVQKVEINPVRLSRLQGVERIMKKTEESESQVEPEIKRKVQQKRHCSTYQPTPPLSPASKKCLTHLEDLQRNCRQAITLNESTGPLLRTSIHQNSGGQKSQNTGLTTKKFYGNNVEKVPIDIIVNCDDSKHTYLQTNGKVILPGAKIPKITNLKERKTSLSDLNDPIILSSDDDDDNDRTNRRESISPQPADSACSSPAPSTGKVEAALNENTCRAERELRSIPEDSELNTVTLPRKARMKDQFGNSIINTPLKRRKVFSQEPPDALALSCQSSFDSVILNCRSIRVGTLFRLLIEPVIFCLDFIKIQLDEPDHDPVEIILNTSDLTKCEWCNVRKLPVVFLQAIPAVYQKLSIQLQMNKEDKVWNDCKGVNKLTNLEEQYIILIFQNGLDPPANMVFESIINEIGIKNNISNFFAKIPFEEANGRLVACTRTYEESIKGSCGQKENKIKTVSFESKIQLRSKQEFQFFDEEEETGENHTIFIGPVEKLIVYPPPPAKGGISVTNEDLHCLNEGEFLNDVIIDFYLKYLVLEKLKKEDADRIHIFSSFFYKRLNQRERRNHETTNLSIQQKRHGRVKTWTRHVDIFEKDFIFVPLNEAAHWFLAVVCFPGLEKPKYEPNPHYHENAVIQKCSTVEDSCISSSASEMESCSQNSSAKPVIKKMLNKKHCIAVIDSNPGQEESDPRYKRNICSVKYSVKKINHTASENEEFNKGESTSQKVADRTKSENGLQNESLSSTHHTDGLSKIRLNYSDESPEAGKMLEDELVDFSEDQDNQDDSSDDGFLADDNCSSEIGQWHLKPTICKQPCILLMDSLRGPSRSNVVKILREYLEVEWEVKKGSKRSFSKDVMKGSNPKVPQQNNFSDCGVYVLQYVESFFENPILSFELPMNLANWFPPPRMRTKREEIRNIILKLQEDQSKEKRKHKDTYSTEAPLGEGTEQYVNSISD

[3] = molecular target: T4, Sentrin-specific protease 8 (Homo sapiens, UniProt Q96LD8);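 note: luminescence read-out of SENP8 inhibition, dose-response confirmation following an ultra-high-throughput screen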
T4 sequence (Q96LD8 whole entry): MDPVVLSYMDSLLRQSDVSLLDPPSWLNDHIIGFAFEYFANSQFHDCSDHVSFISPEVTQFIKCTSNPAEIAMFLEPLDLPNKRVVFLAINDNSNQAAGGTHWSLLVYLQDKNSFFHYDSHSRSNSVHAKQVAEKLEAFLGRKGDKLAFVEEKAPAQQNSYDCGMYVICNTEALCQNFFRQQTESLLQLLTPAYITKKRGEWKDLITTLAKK

Activated CDC42 kinase 1 = Activated CDC42 kinase 1 (Homo sapiens, UniProt Q07912); assay: Navigating the Kinome. Panel member name: ACK1
Activated CDC42 kinase 1, sequence (Q07912 whole entry): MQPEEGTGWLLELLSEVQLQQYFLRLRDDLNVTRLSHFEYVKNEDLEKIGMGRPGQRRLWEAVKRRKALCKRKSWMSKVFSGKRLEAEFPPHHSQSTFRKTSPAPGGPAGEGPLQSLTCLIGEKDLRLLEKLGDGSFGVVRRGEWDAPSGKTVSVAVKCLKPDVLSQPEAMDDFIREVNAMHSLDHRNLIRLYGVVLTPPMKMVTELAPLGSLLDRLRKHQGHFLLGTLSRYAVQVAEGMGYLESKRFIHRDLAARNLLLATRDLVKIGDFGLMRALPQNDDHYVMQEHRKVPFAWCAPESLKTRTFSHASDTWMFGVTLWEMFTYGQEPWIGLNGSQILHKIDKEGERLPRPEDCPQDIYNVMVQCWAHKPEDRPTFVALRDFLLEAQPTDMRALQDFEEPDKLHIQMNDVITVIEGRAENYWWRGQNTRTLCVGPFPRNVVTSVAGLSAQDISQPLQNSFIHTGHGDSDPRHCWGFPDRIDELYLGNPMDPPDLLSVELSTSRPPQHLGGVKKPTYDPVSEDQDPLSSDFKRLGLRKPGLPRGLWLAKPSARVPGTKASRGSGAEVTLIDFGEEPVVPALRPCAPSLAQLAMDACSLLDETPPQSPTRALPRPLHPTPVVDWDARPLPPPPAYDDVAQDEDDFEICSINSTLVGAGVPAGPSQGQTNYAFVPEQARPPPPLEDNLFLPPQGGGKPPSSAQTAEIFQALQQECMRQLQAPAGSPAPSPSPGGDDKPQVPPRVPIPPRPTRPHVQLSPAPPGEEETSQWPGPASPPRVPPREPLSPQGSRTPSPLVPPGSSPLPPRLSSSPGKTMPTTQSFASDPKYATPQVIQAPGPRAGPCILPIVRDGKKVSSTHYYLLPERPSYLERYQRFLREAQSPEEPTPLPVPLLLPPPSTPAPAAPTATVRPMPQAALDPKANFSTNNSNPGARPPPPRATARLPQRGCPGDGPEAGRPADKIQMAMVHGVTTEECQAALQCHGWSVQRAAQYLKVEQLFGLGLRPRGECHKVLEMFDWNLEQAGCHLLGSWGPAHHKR

[4] = molecular target: Vascular endothelial growth factor receptor 2 (Homo sapiens, UniProt P35968)
Vascular endothelial growth factor receptor 2, sequence (P35968 whole entry): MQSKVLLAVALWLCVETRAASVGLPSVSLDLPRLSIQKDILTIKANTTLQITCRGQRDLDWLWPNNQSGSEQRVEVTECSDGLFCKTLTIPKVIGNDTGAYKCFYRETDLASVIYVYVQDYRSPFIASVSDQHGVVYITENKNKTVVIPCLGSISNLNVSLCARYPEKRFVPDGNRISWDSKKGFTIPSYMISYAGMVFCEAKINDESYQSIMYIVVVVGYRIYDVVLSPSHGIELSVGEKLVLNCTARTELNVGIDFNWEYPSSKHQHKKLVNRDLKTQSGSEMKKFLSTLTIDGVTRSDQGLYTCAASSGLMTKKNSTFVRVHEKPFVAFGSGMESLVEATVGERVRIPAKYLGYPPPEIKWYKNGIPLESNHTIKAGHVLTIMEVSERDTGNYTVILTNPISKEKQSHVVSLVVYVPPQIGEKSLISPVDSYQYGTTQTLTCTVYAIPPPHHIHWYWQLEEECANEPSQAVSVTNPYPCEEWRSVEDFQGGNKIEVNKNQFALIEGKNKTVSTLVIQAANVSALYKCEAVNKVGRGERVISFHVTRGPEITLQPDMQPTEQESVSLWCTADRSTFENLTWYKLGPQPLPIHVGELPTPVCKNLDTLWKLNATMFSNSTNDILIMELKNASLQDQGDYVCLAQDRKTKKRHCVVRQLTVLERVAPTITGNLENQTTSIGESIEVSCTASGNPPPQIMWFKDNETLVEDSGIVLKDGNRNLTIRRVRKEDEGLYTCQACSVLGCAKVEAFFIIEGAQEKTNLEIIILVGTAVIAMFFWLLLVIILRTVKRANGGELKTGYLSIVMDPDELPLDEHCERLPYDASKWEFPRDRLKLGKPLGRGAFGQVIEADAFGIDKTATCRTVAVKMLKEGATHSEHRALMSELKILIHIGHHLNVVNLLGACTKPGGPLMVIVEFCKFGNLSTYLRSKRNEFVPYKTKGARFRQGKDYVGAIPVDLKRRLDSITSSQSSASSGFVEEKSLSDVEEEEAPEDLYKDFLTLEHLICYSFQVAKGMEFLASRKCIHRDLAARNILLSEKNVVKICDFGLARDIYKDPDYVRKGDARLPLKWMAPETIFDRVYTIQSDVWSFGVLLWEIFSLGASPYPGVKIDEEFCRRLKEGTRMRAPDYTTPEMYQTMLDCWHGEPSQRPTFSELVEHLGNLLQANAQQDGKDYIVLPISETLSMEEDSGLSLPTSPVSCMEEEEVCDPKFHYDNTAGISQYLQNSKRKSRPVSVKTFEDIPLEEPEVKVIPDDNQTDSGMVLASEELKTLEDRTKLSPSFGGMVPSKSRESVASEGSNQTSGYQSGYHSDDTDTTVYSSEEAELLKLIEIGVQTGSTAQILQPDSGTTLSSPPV

[5] = molecular target: Tyrosine-protein kinase Fyn (Homo sapiens, UniProt P06241)
Tyrosine-protein kinase Fyn, sequence (P06241 whole entry): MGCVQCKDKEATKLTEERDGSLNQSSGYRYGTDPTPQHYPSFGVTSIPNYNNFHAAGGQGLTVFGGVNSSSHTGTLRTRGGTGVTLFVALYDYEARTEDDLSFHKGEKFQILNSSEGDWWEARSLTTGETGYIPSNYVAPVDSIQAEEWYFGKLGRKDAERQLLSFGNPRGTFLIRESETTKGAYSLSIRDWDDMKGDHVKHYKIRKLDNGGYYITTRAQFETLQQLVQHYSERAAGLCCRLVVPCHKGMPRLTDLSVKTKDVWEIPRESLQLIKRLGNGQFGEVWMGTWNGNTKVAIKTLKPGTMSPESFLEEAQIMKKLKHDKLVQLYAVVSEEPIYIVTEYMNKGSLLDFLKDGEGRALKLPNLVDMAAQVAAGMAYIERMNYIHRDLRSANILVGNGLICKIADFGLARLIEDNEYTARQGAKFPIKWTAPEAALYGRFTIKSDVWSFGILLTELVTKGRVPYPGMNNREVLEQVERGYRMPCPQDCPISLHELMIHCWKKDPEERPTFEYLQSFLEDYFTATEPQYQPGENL

[6] = molecular target: Cyclin-dependent kinase 7 (Homo sapiens, UniProt P50613);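 note: value comes from a kinome-wide kinase profiling panel in which CDK7 is one member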
Cyclin-dependent kinase 7, sequence (P50613 whole entry): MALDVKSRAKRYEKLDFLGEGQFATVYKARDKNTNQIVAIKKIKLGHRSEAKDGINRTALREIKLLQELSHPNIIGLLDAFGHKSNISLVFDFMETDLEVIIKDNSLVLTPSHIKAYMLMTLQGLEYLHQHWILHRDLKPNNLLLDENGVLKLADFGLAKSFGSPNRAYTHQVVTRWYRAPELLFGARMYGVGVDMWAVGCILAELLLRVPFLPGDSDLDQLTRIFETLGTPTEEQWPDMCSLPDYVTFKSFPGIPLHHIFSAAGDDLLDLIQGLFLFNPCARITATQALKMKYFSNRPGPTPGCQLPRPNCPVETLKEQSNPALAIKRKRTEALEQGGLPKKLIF

[7] = molecular target: Glycogen synthase kinase-3 beta (Homo sapiens, UniProt P49841);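 note: value comes from a broad kinome profiling panel, with GSK3B as the panel member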
Glycogen synthase kinase-3 beta, sequence (P49841 whole entry): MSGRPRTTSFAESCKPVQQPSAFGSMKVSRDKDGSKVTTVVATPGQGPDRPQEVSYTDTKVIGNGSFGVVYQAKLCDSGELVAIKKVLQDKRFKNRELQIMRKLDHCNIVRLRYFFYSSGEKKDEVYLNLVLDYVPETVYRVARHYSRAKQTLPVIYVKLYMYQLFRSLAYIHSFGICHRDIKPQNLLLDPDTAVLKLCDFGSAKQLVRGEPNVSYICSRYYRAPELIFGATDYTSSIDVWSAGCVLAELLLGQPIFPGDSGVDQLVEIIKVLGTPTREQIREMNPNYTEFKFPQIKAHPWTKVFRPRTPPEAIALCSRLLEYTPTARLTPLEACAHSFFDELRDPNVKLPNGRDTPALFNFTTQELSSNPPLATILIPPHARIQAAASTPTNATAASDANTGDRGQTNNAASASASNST

[8] = molecular target: Leukocyte tyrosine kinase receptor (Homo sapiens, UniProt P29376); assay: Navigating the Kinome. Panel member name: LTK
Leukocyte tyrosine kinase receptor, sequence (P29376 whole entry): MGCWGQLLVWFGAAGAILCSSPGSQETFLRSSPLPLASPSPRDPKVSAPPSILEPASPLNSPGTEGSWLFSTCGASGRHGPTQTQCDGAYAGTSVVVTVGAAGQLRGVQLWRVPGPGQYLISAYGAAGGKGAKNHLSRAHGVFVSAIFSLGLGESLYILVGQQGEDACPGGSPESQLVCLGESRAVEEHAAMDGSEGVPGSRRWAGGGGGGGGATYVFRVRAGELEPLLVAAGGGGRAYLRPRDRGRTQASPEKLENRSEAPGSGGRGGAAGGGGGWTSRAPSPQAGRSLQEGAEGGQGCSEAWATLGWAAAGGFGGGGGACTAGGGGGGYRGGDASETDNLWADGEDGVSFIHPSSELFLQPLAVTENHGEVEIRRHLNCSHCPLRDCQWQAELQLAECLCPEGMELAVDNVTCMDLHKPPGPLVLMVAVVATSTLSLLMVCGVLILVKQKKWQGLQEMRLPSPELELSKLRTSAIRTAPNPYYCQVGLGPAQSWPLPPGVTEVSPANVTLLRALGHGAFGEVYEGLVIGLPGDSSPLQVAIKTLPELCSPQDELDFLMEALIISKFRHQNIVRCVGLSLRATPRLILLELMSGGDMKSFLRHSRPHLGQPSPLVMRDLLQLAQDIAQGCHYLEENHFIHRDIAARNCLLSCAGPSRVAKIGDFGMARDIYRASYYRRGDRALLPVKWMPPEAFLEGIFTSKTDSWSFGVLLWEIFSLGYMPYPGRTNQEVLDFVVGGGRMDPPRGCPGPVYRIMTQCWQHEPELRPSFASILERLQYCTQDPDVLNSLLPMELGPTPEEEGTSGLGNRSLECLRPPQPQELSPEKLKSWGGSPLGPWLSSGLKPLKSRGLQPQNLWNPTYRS

| Ki (Activated CDC42 kinase 1) | Ki [4] | Ki [5] | Ki [6] | Ki [7] | Ki [8] | Compound | IC50 (Caspase-3) | IC50 [1] | IC50 [2] | IC50 [3] |
| --- | --- | --- | --- | --- | --- | --- | --- | --- | --- | --- |
| – | – | – | – | – | – | Cc1ccc(NC(=O)COc2cccc(/C=C3\SC(=S)N(CCC(=O)O)C3=O)c2)cc1Cl | 70 µM (active) | 18.3 µM (active) | > 100 µM (inactive) | 3.14 µM (active) |
| > 3.98 µM (inactive) | > 2.51 µM (inactive) | > 6.31 µM (inactive) | > 3.98 µM (inactive) | 1.26 µM (active) | > 2.51 µM (inactive) | COc1cccc(C(C)NC(=O)c2ccc(-c3ccncc3)s2)c1 (centres undefined) | – | – | – | – |
| – | – | – | – | – | – | O=Nc1c(-c2c(O)[nH]c3cc(Br)ccc23)[nH]c2ccccc12 | 64.3 µM (active) | 5.6 µM (active) | > 100 µM (inactive) | > 100 µM (inactive) |

Source: ChEMBL document CHEMBL1201862, “PubChem BioAssay data set” (2004)
